From patent US4734120A, “Dipeptides containing C-terminal phosphinothricin, a process for their preparation and their use for controlling undesirable plant growth” (Hoechst Aktiengesellschaft, priority 1985, dated 1988) come the findings set out here.

Assay in all cases: Effect on weeds by the post-emergence technique
Common to all, as to assay type: in vivo
Settings in all cases: rated visually after approx. 3-4 weeks

In test [1] the test system is Echinochloa crusgalli barnyardgrass. As for the experimental part:
(§1) The damage caused to weed plants or the toleration by crop plants was rated by means of a code in which the activity is expressed by valuation numbers from 0 to 5. These have the following meanings:
(§2) Seeds or pieces of rhizome of monocotyledonous and dicotyledonous weeds were laid out in sandy loam soil in plastic pots (.phi.=9 l cm), covered with soil and cultivated in a greenhouse under good conditions for growth. The test plants were treated in the three leaf stage three weeks after sowing.
(§3) The compounds according to the invention, formulated as wettable powders, as emulsion concentrates or as aqueous solutions, were sprayed onto the green parts of the plants at various dosages and at a water application rate equivalent to 600 l/hectare, and the effect of the preparations was rated visually in comparison with untreated controls after the test plants had stood for approx. 3-4 weeks in a greenhouse under optimum conditions for growth (temperature 23 plus/minus 1° C.; relative humidity 60-80%). The agents according to the invention display a good herbicidal activity in the post-emergence technique against a broad spectrum of grass-like weeds and weeds of economic importance.

The test system of test [2] is Sinapis alba (white mustard). The method, then:
as §1, §2, §3

The subject of test [3] is Stellaria media (starwort). The method, then:
as §1, §2, §3

Test [4] relates to Setaria lutescens foxtail. As for the experimental part:
as §1, §2, §3

The subject of test [5] is Avena fatua (wild oats). The method, then: as §1, §2, §3
Test [6] concerns Chrysanthemum segetum corn marigold. The method, then:
as §1, §2, §3

Structures are written as SMILES.

As to `CC(C)C(N)C(=O)NC(CCP(C)(=O)O)C(=O)O` (racemic) [Example 1, N-Dl-valyl-DL-phosphinothricin], the “Herbicidal effect ECG” value in test [1] (0.6 kg of a.i./hectare) and in test [1] (2.4 kg of a.i./hectare) was 5 (5=80-100% effect or damage) in each case. In addition, the “Herbicidal effect SIA” value in test [2] (0.6 kg of a.i./hectare) and in test [2] (2.4 kg of a.i./hectare) was 5 (5=80-100% effect or damage) each time. Moreover, the “Herbicidal effect STM” value in test [3] (0.6 kg of a.i./hectare) is 4 (4=60-80% effect or damage); in test [3] (2.4 kg of a.i./hectare), 5 (5=80-100% effect or damage). Moreover, the “Herbicidal effect SAL” value in test [4] (0.6 kg of a.i./hectare) is given as 4 (4=60-80% effect or damage); in test [4] (2.4 kg of a.i./hectare) it was 5 (5=80-100% effect or damage). Further, the “Herbicidal effect AVF” value in test [5] (0.6 kg of a.i./hectare) is recorded as 4 (4=60-80% effect or damage); in test [5] (2.4 kg of a.i./hectare), 5 (5=80-100% effect or damage). The “Herbicidal effect CRS” value in test [6] (0.6 kg of a.i./hectare) and in test [6] (2.4 kg of a.i./hectare) was 5 (5=80-100% effect or damage) throughout.
On to `CP(=O)(O)CCC(NC(=O)[C@@H](N)Cc1ccccc1)C(=O)O` (mixture of isomers) [Example 2, N-L-phenylalanyl-DL-phosphinothricin], for which the “Herbicidal effect ECG” value in test [1] (0.6 kg of a.i./hectare) and in test [1] (2.4 kg of a.i./hectare) was 5 (5=80-100% effect or damage) throughout. The “Herbicidal effect SIA” value in test [2] (0.6 kg of a.i./hectare) and in test [2] (2.4 kg of a.i./hectare) was 5 (5=80-100% effect or damage) each time. In addition, the “Herbicidal effect STM” value in test [3] (0.6 kg of a.i./hectare) is reported as 4 (4=60-80% effect or damage); in test [3] (2.4 kg of a.i./hectare), 5 (5=80-100% effect or damage). For the same compound, the “Herbicidal effect SAL” value in test [4] (0.6 kg of a.i./hectare) and in test [4] (2.4 kg of a.i./hectare) was 5 (5=80-100% effect or damage) throughout. The “Herbicidal effect AVF” value in test [5] (0.6 kg of a.i./hectare) and in test [5] (2.4 kg of a.i./hectare) was 5 (5=80-100% effect or damage) each time. Besides, the “Herbicidal effect CRS” value in test [6] (0.6 kg of a.i./hectare) and in test [6] (2.4 kg of a.i./hectare) was 5 (5=80-100% effect or damage) each time.
On to `CC(C)C[C@H](N)C(=O)NC(CCP(C)(=O)O)C(=O)O` (some centres unmarked) [Example 24], for which the “Herbicidal effect ECG” value in test [1] (2.4 kg of a.i./hectare) is recorded as 5 (5=80-100% effect or damage). Also, the “Herbicidal effect SIA” value in test [2] (2.4 kg of a.i./hectare) is reported as 5 (5=80-100% effect or damage). Further, the “Herbicidal effect STM” value in test [3] (2.4 kg of a.i./hectare) is 5 (5=80-100% effect or damage). The “Herbicidal effect CRS” value in test [6] (2.4 kg of a.i./hectare) was 5 (5=80-100% effect or damage).
Consider `CP(=O)(O)CCC(NC(=O)C(N)c1ccccc1)C(=O)O` (centres unmarked) [Example 34], for which the “Herbicidal effect ECG” value in test [1] (0.6 kg of a.i./hectare) and in test [1] (2.4 kg of a.i./hectare) was 5 (5=80-100% effect or damage) throughout. In addition, the “Herbicidal effect SIA” value in test [2] (0.6 kg of a.i./hectare) and in test [2] (2.4 kg of a.i./hectare) was 5 (5=80-100% effect or damage) throughout. Moreover, the “Herbicidal effect STM” value in test [3] (0.6 kg of a.i./hectare) is reported as 4 (4=60-80% effect or damage); in test [3] (2.4 kg of a.i./hectare), 5 (5=80-100% effect or damage). Further, the “Herbicidal effect SAL” value in test [4] (0.6 kg of a.i./hectare) is given as 4 (4=60-80% effect or damage); in test [4] (2.4 kg of a.i./hectare) it was 5 (5=80-100% effect or damage). For the same compound, the entries for the “Herbicidal effect AVF” value in test [5] (0.6 kg of a.i./hectare) and in test [5] (2.4 kg of a.i./hectare) were 3 (3=40-60% effect or damage) and 4 (4=60-80% effect or damage), respectively. Besides, the “Herbicidal effect CRS” value in test [6] (0.6 kg of a.i./hectare) and in test [6] (2.4 kg of a.i./hectare) was 5 (5=80-100% effect or damage) throughout.
For `CP(=O)(O)CCC(NC(=O)[C@@H](N)CCCCN)C(=O)O` (some centres unmarked) [Example 72], the “Herbicidal effect ECG” value in test [1] (2.4 kg of a.i./hectare) is 5 (5=80-100% effect or damage). The “Herbicidal effect SIA” value in test [2] (2.4 kg of a.i./hectare) is reported as 5 (5=80-100% effect or damage). In test [3] (2.4 kg of a.i./hectare), the “Herbicidal effect STM” value is 5 (5=80-100% effect or damage). Besides, the “Herbicidal effect CRS” value in test [6] (2.4 kg of a.i./hectare) is listed as 5 (5=80-100% effect or damage).
